The structures appear in SMILES notation.

For one series, the system named is female db/db mice. Put plainly: blood sugar level depressing activity in dd/db mice. The settings on record: dose 10 mg/kg, drug mixed with powder diet, given for 14 days, difference between db/db control group and +/+ mice taken as 100%. It counts as in vivo. The method, then: (blood sugar level depressing activity in dd/db mice)
Female C57BL/KsJ-dbm db+/db+, C57BL/KsJ-dbm +m/+m (Jackson Laboratory) mice (5 weeks old) were purchased and subjected to the test after 2-3 weeks of acclimating period.
The test drug was mixed with a powder diet (CE-2, Clea Japan, Inc.) in a mortar. In the case of administration in 100 mg/kg, the mixing proportion of the test drug to the diet was 0.1%, in the case of 30 mg/kg, the proportion was 0.03% and in the case of 10 mg/kg, the proportion was 0.01%. The diet was changed twice a week. The amount of the diet given and the amount left were recorded and the diet intake was calculated by determining the difference.
The female db/db mice were grouped according to body weight, blood sugar level and triglceride concentration in blood. […] The blood sugar value, triglyceride concentration in plasma and insulin concentration in plasma were measured at day 0 and day 14, and blood sugar value and triglyceride concentration in blood were measured at day 7. Body weight was measured at day 0, day 7 and day 14. […]
Blood sugar value was measured using 10-15 μl of plasma and in accord with glucose oxidase method glucose CII-test Waco, Waco Pure Chemicals Co., Ltd.). […] The insulin concentration in plasma was measured using 20 μl of plasma (preservable at −20° C.) and in accord with an antibody method (Phadesef Insulin RIA kit, Kabi Pharmacia). […]

Turning to `CCCCCS(=O)(=O)NC(=O)c1ccc2oc(C)c(Cc3ccc(Cl)cc3Cl)c2c1` [Compound A, 3-(2,4-Dichlorobenzyl)-2-methyl-5-(1-n-pentanesulfonylcarbamoyl)-benzo[b]furan], the “Blood sugar decrease (%)” value in the series with female db/db mice is listed as 71%.

For orientation: melting point means the temperature, or range, at which the solid turns liquid. Regarding `CCCCCS(=O)(=O)NC(=O)c1ccc2nc(C)n(Cc3ccc(Cl)cc3OC)c2n1` [Example 27, 3-(4-chloro-2-methoxybenzyl)-2-methyl-5-(n-pentanesulfonylcarbamoyl)-3H-imidazo[4,5-b]pyridine], the melting point was in the range of 168 to 170 °C.

The molecule `CCCCCS(=O)(=O)NC(=O)c1ccc2nc(C)n(Cc3ccc(Br)cc3Cl)c2n1` [Example 12-1, 3-(4-bromo-2-chlorobenzyl)-2-methyl-5-(n-pentanesulfonylcarbamoyl)-3H-imidazo[4,5-b]pyridine] came in with a melting point of 183 to 184 °C. Take `Cc1nc2ccc(C(=O)NS(=O)(=O)c3ccccc3)nc2n1Cc1ccc(-c2ccc(Cl)s2)cc1Cl` [Example 69, 5-(benzenesulfonylcarbamoyl)-3-[2-chloro-4-(5-chlorothiophene-2-yl)benzyl]-2-methyl-3H-imidazo[4,5-b]pyridine]: the melting point lay in the range of 215 to 217 °C. In the case of `Cc1nc2ccc(C(=O)NS(=O)(=O)c3ccccc3)nc2n1Cc1ccc(CCc2ccccc2)cc1Cl` [Example 113, 5-(benzenesulfonylcarbamoyl)-3-(2-chloro-4-(2-phenylethyl)benzyl)-2-methyl-3H-imidazo[4,5-b]pyridine], the melting point was in the range of 180 to 181 °C. Take `Cc1cc(C(=O)NS(=O)(=O)c2ccc(Br)s2)nc2c1nc(C)n2Cc1ccc(-c2ccccc2)cc1Cl` [Example 186, 5-[(5-bromothiophen-2-yl)sulfonylcarbamoyl]-3-(2-chloro-4-phenylbenzyl)-2,7-dimethyl-3H-imidazo[4,5-b]pyridine]: the melting point fell in the range of 243 to 244 °C.

`Cc1nc2ccc(C(=O)NS(=O)(=O)c3ccccc3)nc2n1Cc1ccc(OCC2CCCCC2)cc1Cl` [Example 81, 5-(benzenesulfonylcarbamoyl)-3-(2-chloro-4-((cyclohexylmethyl)oxy)benzyl)-2-methyl-3H-imidazo[4,5-b]pyridine] showed a melting point of 122 to 125 °C. The molecule `CCCCS(=O)(=O)NC(=O)c1ccc2c(=O)n(CC)c(=O)n(Cc3ccc(Cl)cc3Cl)c2c1` [Example 42, 7-(1-n-butanesulfonyl-carbamoyl)-1-(2,4-dichlorobenzyl)-3-ethyl-2,4(1H,3H)-quinazolinedione] registered a melting point of 212 to 214 °C. `Cc1cc(C(=O)NS(=O)(=O)/C=C/c2ccccc2)nc2c1nc(C)n2Cc1ccc(-c2ccc(Cl)s2)cc1Cl` [Example 196, 3-[2-chloro-4-(5-chlorothiophen-2-yl)benzyl]-2,7-dimethyl-5-[(E)-(2-phenylethenyl)sulfonylcarbamoyl]-3H-imidazo[4,5-b]pyridine]: the melting point was 224 to 225 °C. Consider `Cc1nc2ccc(C(=O)NS(=O)(=O)c3ccccc3)nc2n1Cc1ccc(Br)cc1Cl` [Example 12-3, 5-(benzenesulfonylcarbamoyl)-3-(4-bromo-2-chlorobenzyl)-2-methyl-3H-imidazo[4,5-b]pyridine], for which the melting point lay in the range of 193 to 194 °C. For `Cc1nc2ccc(C(=O)NS(=O)(=O)c3ccc(Cl)s3)nc2n1Cc1ccc(-c2ccccc2)cc1Cl` [Example 67-3, 3-(2-chloro-4-phenylbenzyl)-5-[(5-chlorothiophene-2-yl)sulfonylcarbamoyl]-2-methyl-3H-imidazo[4,5-b]pyridine], the melting point was in the range of 210 to 212 °C.

`CCCCS(=O)(=O)NC(=O)c1ccc2c(=O)n(Cc3ccc(Cl)cc3Cl)cnc2c1` [Example 44, 7-(1-n-butanesulfonyl-carbamoyl)-3-(2,4-dichlorobenzyl)-4(3H)-quinazolinone] had a melting point of 245 to 247 °C.

For the origin of these results see patent US6911469B2, “Sulfonamide compounds and pharmaceutical use thereof” (Fujisawa Pharmaceutical Co., Ltd., priority 1997, dated 2005).
